Reference: patent US20190071416A1, “COMPOUNDS FOR TREATMENT OF CANCER AND EPIGENETICS” (Agency For Science, Technology and Research, priority 2015, published 2019)

target: T1, SMYD3 (Homo sapiens, UniProt Q9H7B4); experiment: SMYD3 biochemical assay (MTase-Glo, MAP3K2 peptide substrate); details: Table 3; MTase assay, MAP3K2 peptide substrate; read-out: IC50
T1 sequence (Q9H7B4 1-428): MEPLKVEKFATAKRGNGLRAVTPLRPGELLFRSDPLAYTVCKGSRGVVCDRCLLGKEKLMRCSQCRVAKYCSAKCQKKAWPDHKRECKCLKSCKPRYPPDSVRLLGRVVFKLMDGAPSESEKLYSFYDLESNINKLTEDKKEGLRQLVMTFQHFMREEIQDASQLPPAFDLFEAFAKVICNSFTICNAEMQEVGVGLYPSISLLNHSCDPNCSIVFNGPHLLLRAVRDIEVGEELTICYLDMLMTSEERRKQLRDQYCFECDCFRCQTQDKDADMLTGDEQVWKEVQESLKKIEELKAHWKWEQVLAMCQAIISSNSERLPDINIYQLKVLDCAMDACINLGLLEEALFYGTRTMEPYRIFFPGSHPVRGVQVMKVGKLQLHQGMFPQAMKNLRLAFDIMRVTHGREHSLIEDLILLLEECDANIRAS
Description: A SMYD3 enzymatic assay was developed using Promega's Methyltransferase-Glo™ reagents. In the assay, SMYD3 catalyzes the methylation of the MAP3K2 peptide substrate by transferring a methyl group from SAM to MAP3K2 peptide and further converts the SAM to SAH. The SMYD3 methyltransferase activity is measured based on the amount of SAH produced from the reaction through the use of coupling enzymes that convert the SAH to ATP. The MTase-Glo detection solution then catalyzes the formation of light from ATP.
A final concentration of 1.0 μM and 10 μM SAM and MAP3K2 peptide were added and further incubated for 30 min at room temperature before adding the MTase Glo and detection reagent. Reaction signals were detected using microplate readers on luminescent mode (Safire Tecan). The IC50 was determined by non-linear regression, using GraphPad Prism version, 5.03.

SMILES | IC50 [nM]
CCCOC(=O)N1CCN(C(=O)c2ccc3c(Cl)c4c(nc3c2)CCC(CC(N)=O)C4)CC1 (centres unmarked) [A079, Propyl 4-(7-(2-amino-2-oxoethyl)-9-chloro-5,6,7,8-tetrahydroacridine-3-carbonyl)piperazine-1-carboxylate] | 430
CCCOC(=O)N1CCN(C(=O)c2ccc3c(Cl)cc(-c4cnc5[nH]nc(C)c5c4)nc3c2)C[C@H]1C [B199, Propyl (R)-4-(4-chloro-2-(3-methyl-1H-pyrazolo[3,4-b]pyridin-5-yl)quinoline-7-carbonyl)-2-methylpiperazine-1-carboxylate] | 350
CCCOC(=O)N1CCN(C(=O)c2ccc3c(Cl)c4c(nc3c2)CCCC4)[C@H](C)C1 [A011, Propyl (R)-4-(9-chloro-5,6,7,8-tetrahydroacridine-3-carbonyl)-3-methylpiperazine-1-carboxylate] | 300
CCCOC(=O)N1CCN(C(=O)c2ccc3c(Cl)cc(-c4cccc(N)c4)nc3c2)C[C@H]1C [B078, Propyl (R)-4-(2-(3-aminophenyl)-4-chloroquinoline-7-carbonyl)-2-methylpiperazine-1-carboxylate] | 130
CCCOC(=O)N1CCN(C(=O)c2ccc3c(Cl)cc(-c4ccc5[nH]nc(C)c5c4)nc3c2)[C@@H](C)C1 [B198, Propyl (S)-4-(4-chloro-2-(3-methyl-1H-indazol-5-yl)quinoline-7-carbonyl)-3-methylpiperazine-1-carboxylate] | 200
CCCOC(=O)N1CC2CCCC(C1)N2C(=O)c1ccc2c(Cl)c3c(nc2c1)CCCC3 [A015, Propyl 9-(9-chloro-5,6,7,8-tetrahydroacridine-3-carbonyl)-3,9-diazabicyclo[3.3.1]nonane-3-carboxylate] | 320
CCCOC(=O)N1CCN(C(=O)c2ccc3c(Cl)cc(-c4ccc(OC)c(CN)c4)nc3c2)C[C@@H]1C [B280, Propyl (S)-4-(2-(3-(aminomethyl)-4-methoxyphenyl)-4-chloroquinoline-7-carbonyl)-2-methylpiperazine-1-carboxylate] | 67
CCCOC(=O)N1CCN(C(=O)c2ccc3c(Cl)cc(-c4cccc(CN(C)C)c4)nc3c2)C[C@H]1C [B111, Propyl (R)-4-(4-chloro-2-(3-((dimethylamino)methyl)phenyl)quinoline-7-carbonyl)-2-methylpiperazine-1-carboxylate] | 220
CCCOC(=O)N1CCN(C(=O)c2ccc3c(Cl)cc(-c4cnc5cccnc5c4)nc3c2)C[C@@H]1C [B188, Propyl (S)-4-(4-chloro-2-(1,5-naphthyridin-3-yl)quinoline-7-carbonyl)-2-methylpiperazine-1-carboxylate] | 890
CCCOC(=O)N1CCN(C(=O)c2ccc3c(Cl)cc(-c4cnn(C5CCCC5)c4)nc3c2)C[C@H]1C [B278, Propyl (R)-4-(4-chloro-2-(1-cyclopentyl-1H-pyrazol-4-yl)quinoline-7-carbonyl)-2-methylpiperazine-1-carboxylate] | 22
C=CCC1CCCc2c1nc1cc(C(=O)N3CCN(C(=O)OCCC)CC3)ccc1c2Cl (centres unmarked) [A146, Propyl 4-(5-allyl-9-chloro-5,6,7,8-tetrahydroacridine-3-carbonyl)piperazine-1-carboxylate] | 560
CCCOC(=O)N1CCN(C(=O)c2ccc3c(Cl)c4c(nc3c2)CCCC4)C2(CC2)C1 [A037, Propyl 4-(9-chloro-5,6,7,8-tetrahydroacridine-3-carbonyl)-4,7-diazaspiro[2.5]octane-7-carboxylate] | 8400
CCCOC(=O)N1CCN(C(=O)c2ccc3c(Cl)c4c(nc3c2)CC(c2ncccc2C)CC4)[C@H](C)C1 (stereo partly drawn) [A109, Propyl (3R)-4-(9-chloro-6-(3-methylpyridin-2-yl)-5,6,7,8-tetrahydroacridine-3-carbonyl)-3-methylpiperazine-1-carboxylate] | 720
CCCOC(=O)N1CCN(C(=O)c2ccc3c(Cl)c4c(nc3c2)CC(CN)CC4)[C@@H](C)C1 (stereo partly drawn) [A067, Propyl (3S)-4-(6-(aminomethyl)-9-chloro-5,6,7,8-tetrahydroacridine-3-carbonyl)-3-methylpiperazine-1-carboxylate] | 160
CCCOC(=O)N1CCN(C(=O)c2ccc3c(Cl)cc(-c4cccc(C(N)=O)c4)nc3c2)C[C@H]1C [B053, Propyl (R)-4-(2-(3-carbamoylphenyl)-4-chloroquinoline-7-carbonyl)-2-methylpiperazine-1-carboxylate] | 180
CCCOC(=O)N1CCN(C(=O)c2ccc3c(Cl)cc(-c4cnc5[nH]nc(C)c5c4)nc3c2)[C@@H](C)C1 [B200, Propyl (S)-4-(4-chloro-2-(3-methyl-1H-pyrazolo[3,4-b]pyridin-5-yl)quinoline-7-carbonyl)-3-methylpiperazine-1-carboxylate] | 1030

Now from value to compound:

IC50 [nM] | SMILES
1200 | CCCOC(=O)N1CCN(C(=O)c2ccc3c(Cl)cc(Nc4ccc(OC)cc4)nc3c2)CC1 [B041, Propyl 4-(4-chloro-2-((4-methoxyphenyl)amino)quinoline-7-carbonyl)piperazine-1-carboxylate]
560 | CCCOC(=O)N1CCN(C(=O)c2ccc3c(Cl)cc(C4CC4)nc3c2)CC1 [B125, Propyl 4-(4-chloro-2-cyclopropylquinoline-7-carbonyl)piperazine-1-carboxylate]
90 | CCCOC(=O)N1CCN(C(=O)c2ccc3c(Cl)cc(-c4ccc(N)cc4)nc3c2)CC1 [B073, Propyl 4-(2-(4-aminophenyl)-4-chloroquinoline-7-carbonyl)piperazine-1-carboxylate]
13900 | CCCOC(=O)N1CCN(C(=O)c2ccc3c(Cl)cc(C4(F)CC4)nc3c2)CC1 [B263, Propyl 4-(4-chloro-2-(1-fluorocyclopropyl)quinoline-7-carbonyl)piperazine-1-carboxylate]
490 | CCCOC(=O)N1CCN(C(=O)c2ccc3c(Cl)cc(-c4cc(F)c(C(N)=O)c(F)c4)nc3c2)CC1 [B253, Propyl 4-(2-(4-carbamoyl-3,5-difluorophenyl)-4-chloroquinoline-7-carbonyl)piperazine-1-carboxylate]
420 | CCCOC(=O)N1CCN(C(=O)c2ccc3c(Cl)cc(-c4ccc(N(C)C)cc4)nc3c2)C[C@H]1C [B060, Propyl (R)-4-(4-chloro-2-(4-(dimethylamino)phenyl)quinoline-7-carbonyl)-2-methylpiperazine-1-carboxylate]
2400 | CCCOC(=O)N1CCN(C(=O)c2ccc3c(Cl)c(C)c(-c4cccc([N+](=O)[O-])c4)nc3c2)CC1 [B043, Propyl 4-(4-chloro-3-methyl-2-(3-nitrophenyl)quinoline-7-carbonyl)piperazine-1-carboxylate]
1000 | C#Cc1ccc(-c2cc(Cl)c3ccc(C(=O)N4CCN(C(=O)OCCC)[C@H](C)C4)cc3n2)cc1 [B059, Propyl (R)-4-(4-chloro-2-(4-ethynylphenyl)quinoline-7-carbonyl)-2-methylpiperazine-1-carboxylate]
890 | CCCOC(=O)N1CCN(C(=O)c2ccc3c(Cl)cc(-c4ccc(C(=O)NC5CC5)c(F)c4)nc3c2)CC1 [B205, Propyl 4-(4-chloro-2-(4-(cyclopropylcarbamoyl)-3-fluorophenyl)quinoline-7-carbonyl)piperazine-1-carboxylate]
470 | CCCOC(=O)N1CCN(C(=O)c2ccc3c(Cl)cc(-c4cnc5c(cnn5C)c4)nc3c2)CC1 [B174, Propyl 4-(4-chloro-2-(1-methyl-1H-pyrazolo[3,4-b]pyridin-5-yl)quinoline-7-carbonyl)piperazine-1-carboxylate]
210 | CCCOC(=O)N1CCN(C(=O)c2ccc3c(Cl)cc(-c4cccc(C(N)=O)c4)nc3c2)CC1 [B033, Propyl 4-(2-(3-carbamoylphenyl)-4-chloroquinoline-7-carbonyl)piperazine-1-carboxylate]
3700 | CCCOC(=O)N1CCN(C(=O)c2ccc3c(Cl)cc(-c4ccc(C(F)(F)F)cc4)nc3c2)CC1 [B066, Propyl 4-(4-chloro-2-(4-(trifluoromethyl)phenyl)quinoline-7-carbonyl)piperazine-1-carboxylate]
130 | CCCOC(=O)N1CCN(C(=O)c2ccc3c(Cl)cc(-c4ccc(S(N)(=O)=O)cc4)nc3c2)CC1 [B103, Propyl 4-(4-chloro-2-(4-sulfamoylphenyl)quinoline-7-carbonyl)piperazine-1-carboxylate]
12 | CCCOC(=O)N1CCN(C(=O)c2ccc3c(Cl)cc(-c4ccc(C5(N)CC5)cc4)nc3c2)C[C@H]1C [B281, Propyl (R)-4-(2-(4-(1-aminocyclopropyl)phenyl)-4-chloroquinoline-7-carbonyl)-2-methylpiperazine-1-carboxylate]
490 | CCCOC(=O)N1CCN(C(=O)c2ccc3c(Cl)cc(-c4ccc5[nH]nc(C)c5c4)nc3c2)CC1 [B176, Propyl 4-(4-chloro-2-(3-methyl-1H-indazol-5-yl)quinoline-7-carbonyl)piperazine-1-carboxylate]
950 | CCCOC(=O)N1CCN(C(=O)c2ccc3c(Cl)cc(-c4ccncc4)nc3c2)CC1 [B013, Propyl 4-(4-chloro-2-(pyridin-4-yl)quinoline-7-carbonyl)piperazine-1-carboxylate]
